Measured values taken from patent publication US10584124B2, “Crystalline forms” (Array BioPharma Inc., priority 2017, dated 2020).

Tests used:
[1] = Solvent solubility screen of the compound of Formula II; format: physicochemical; conditions: 40 °C, thermodynamic from solid, read-out: Approximate solubility
Experimental: A solvent solubility screen was conducted in 32 solvent systems as follows.
Between each addition, the mixture was checked for dissolution. If no dissolution was apparent, the mixture was heated to around 40° C. and checked again. This procedure was continued until dissolution was observed or until 100 volumes of solvent had been added. Undissolved material from the solubility screen was isolated and analyzed by XRPD.

[2] = Dynamic vapor sorption (DVS) of the compound of Formula II; format: physicochemical
Experimental: Approximately 10 mg of sample was placed into a mesh vapor sorption balance pan and loaded into a DVS-1 dynamic vapor sorption balance by Surface Measurement Systems. The sample was subjected to a ramping profile from 40-90% relative humidity (RH) at 10% increments, maintaining the sample at each step until a stable weight had been achieved (99.5% step completion). After completion of the sorption cycle, the sample was dried using the same procedure to 0% RH and then a second sorption cycle back to 40% RH. The weight change during the sorption/desorption cycles were plotted, allowing for the hygroscopic nature of the sample to be determined. XRPD analysis was then carried out on any solid retained.
The material appeared highly crystalline by XRPD (FIG. 62A). […] This event was followed by thermal degradation. […] (FIG. 62B).

[3] = Isothermic (25° C.) DVS analysis of salts of the compound of Formula I; format: physicochemical
Excerpt: (FIG. 16D). […] Some hysteresis was observed. […] (FIG. 16C). […] (FIG. 16D).
(FIG. 18A). […] (FIG. 18B). […] Some hysteresis was observed. […] An overlay of FTIR spectra of the L- and D-malic acid salts is shown in FIG. 18F. ^1H NMR spectra of the L- and D-malic salts in DMSO-d^6 are shown in FIG. 18G-18H, respectively.

[4] = Solubility test of the L-malic acid salt at room temperature; format: physicochemical; conditions: DMSO, two lots
[5] = Second solubility study of the L-malic acid salt at elevated temperatures (60° C., 70° C.); format: physicochemical; conditions: for Solids dissolve at 70° C.?: 70° C. for approximately 3.0 hours
[6] = Stability screening of freebase and selected salts of Formula I, 40° C. and 75% RH, weekly HPLC over 4 weeks

COc1ccc(CN2C3CC2CN(c2ccc(-c4cc(OCC(C)(C)O)cn5ncc(C#N)c45)cn2)C3)cn1 [compound of Formula II, 6-(2-hydroxy-2-methylpropoxy)-4-(6-(6-((6-methoxypyridin-3-yl)methyl)-3,6-diazabicyclo[3.1.1]heptan-3-yl)pyridin-3-yl)pyrazolo[1,5-a]pyridine-3-carbonitrile]
17000 µg/mL: solubility ([1]; NMP, organic solvent or mixture)
41000 µg/mL: solubility ([1]; DMSO, organic solvent or mixture)
moderately hygroscopic: Hygroscopicity by DVS (in words) [2]
48000 µg/mL: solubility ([1]; THF:Water (1%), organic solvent or mixture)
around 3.6%: Weight increase by DVS ([2]; 90% RH)
5000 µg/mL: solubility ([1]; MeCN:Water (20%), aqueous with cosolvent or surfactant or cyclodextrin)
< 5000 µg/mL: solubility ([1]; 1-Butanol, organic solvent or mixture) | solubility ([1]; 1-Propanol, organic solvent or mixture) | solubility ([1]; organic solvent or mixture, 1,4-Dioxane, (P) partial solubility at 100 volumes) | solubility ([1]; organic solvent or mixture, 2-Ethoxyethanol, (P) partial solubility at 100 volumes) | solubility ([1]; organic solvent or mixture, 2-Methyl THF, (P) partial solubility at 100 volumes) | solubility ([1]; organic solvent or mixture, Anisole, (P) partial solubility at 100 volumes) | solubility ([1]; organic solvent or mixture, CHCl3, (P) partial solubility at 100 volumes) | solubility ([1]; organic solvent or mixture, Cyclohexanone, (P) partial solubility at 100 volumes) | solubility ([1]; organic solvent or mixture, DCM, (P) partial solubility at 100 volumes) | solubility ([1]; organic solvent or mixture, Nitromethane, (P) partial solubility at 100 volumes) | solubility ([1]; organic solvent or mixture, THF, (P) partial solubility at 100 volumes) | solubility ([1]; Acetone, organic solvent or mixture) | solubility ([1]; Acetone:Water (50%), aqueous with cosolvent or surfactant or cyclodextrin) | solubility ([1]; Cyclohexane, organic solvent or mixture) | solubility ([1]; EtOAc, organic solvent or mixture) | solubility ([1]; Ethanol, organic solvent or mixture) | solubility ([1]; IPA, organic solvent or mixture) | solubility ([1]; MEK, organic solvent or mixture) | solubility ([1]; MIBK, organic solvent or mixture) | solubility ([1]; MeOAc, organic solvent or mixture) | solubility ([1]; Water, water)
No change in Form: Change in Form post-DVS ([2]; XRPD after DVS)

COc1ccc(CN2CCN(c3ccc(-c4cc(-c5cnn(C)c5)cn5ncc(C#N)c45)cn3)CC2)cn1.O=C(O)C[C@H](O)C(=O)O [L-malic acid salt]
97.7%: Stability, HPLC analysis, T = 1 week ([6]; stored at 40° C. and 75% RH, 1 week)
0.5%: Absolute % change ([6]; 40° C. and 75% RH, T = 0 to 4 weeks)
Yes (>56 mg/mL): Solids dissolve at 70° C.? ([5]; solvent DMSO, Yes)
Yes (>13.4 mg/mL): Solids dissolve at 60° C.? ([5]; 60° C. for 3.0 hours, solvent 0.1M HCl, Yes)
~65 °C almost 12.3 mg/mL: Solids dissolve at 60° C.? ([5]; solvent THF, cell says 65° C.)
hygroscopic: Hygroscopicity by DVS (in words) ([3]; isothermic 25° C.)
No: Solids dissolve at 60° C.? ([5]; 60° C. for 3.0 hours, solvent 2-methyl THF) | Solids dissolve at 60° C.? ([5]; 60° C. for 3.0 hours, solvent ACN) | Solids dissolve at 60° C.? ([5]; 60° C. for 3.0 hours, solvent Acetone) | Solids dissolve at 60° C.? ([5]; 60° C. for 3.0 hours, solvent DCE) | Solids dissolve at 60° C.? ([5]; 60° C. for 3.0 hours, solvent EtOAc) | Solids dissolve at 60° C.? ([5]; 60° C. for 3.0 hours, solvent EtOH) | Solids dissolve at 60° C.? ([5]; 60° C. for 3.0 hours, solvent IPA) | Solids dissolve at 60° C.? ([5]; 60° C. for 3.0 hours, solvent MEK) | Solids dissolve at 60° C.? ([5]; 60° C. for 3.0 hours, solvent MTBE) | Solids dissolve at 60° C.? ([5]; 60° C. for 3.0 hours, solvent MeOH) | Solids dissolve at 60° C.? ([5]; 60° C. for 3.0 hours, solvent Toluene) | Solids dissolve at 60° C.? ([5]; 60° C. for 3.0 hours, solvent iPAc) | Solids dissolve at 60° C.? ([5]; 60° C. for 3.0 hours, solvent water) | Solids dissolve at 70° C.? ([5]; solvent 2-methyl THF) | Solids dissolve at 70° C.? ([5]; solvent ACN) | Solids dissolve at 70° C.? ([5]; solvent DCE) | Solids dissolve at 70° C.? ([5]; solvent EtOAc) | Solids dissolve at 70° C.? ([5]; solvent EtOH) | Solids dissolve at 70° C.? ([5]; solvent IPA) | Solids dissolve at 70° C.? ([5]; solvent MEK) | Solids dissolve at 70° C.? ([5]; solvent MTBE) | Solids dissolve at 70° C.? ([5]; solvent Toluene) | Solids dissolve at 70° C.? ([5]; solvent iPAc) | Solids dissolve at 70° C.? ([5]; solvent water)
97.8%: Stability, HPLC analysis, T = 0 ([6]; stored at 40° C. and 75% RH, T = 0)
97.3%: Stability, HPLC analysis, T = 4 weeks ([6]; stored at 40° C. and 75% RH, 4 weeks)
97.4%: Stability, HPLC analysis, T = 2 weeks ([6]; stored at 40° C. and 75% RH, 2 weeks) | Stability, HPLC analysis, T = 3 weeks ([6]; stored at 40° C. and 75% RH, 3 weeks)
Yes (>36 mg/mL): Solids dissolve at 60° C.? ([5]; 60° C. for 3.0 hours, solvent DMSO, Yes)
14000 to 15000 µg/mL: solubility [4]
no observable deliquescence: Deliquescence upon removal from the DVS chamber ([3]; sample remained a free-flowing powder)
approximately 2.8%: Mass gain by DVS ([3]; 80% relative humidity, 25° C.)
